Consider 1 compound from US20080221110A1 (priority 2005, published 2008).

This experiment relates to a strain of at least one of the organisms listed (panel of Gram-positive organisms and Gram-negative strains). Description: organism not typed. It is filed as cell-based. Conditions: read-out: MIC (minimum inhibitory concentration).

For `O=c1ccc2ccc(F)c3c2n1CC3CN1CCC(NC[C@H]2COc3ccnnc3O2)CC1` (mixture of isomers) [Example 62, (1R/S)-1-[(4-{[(7S)-6,7-dihydro[1,4]dioxino[2,3-c]pyridazin-7-ylmethyl]amino}-1-piperidinyl)methyl]-9-fluoro-1,2-dihydro-4H-pyrrolo[3,2,1-ij]quinolin-4-one], the MIC was not above 4 µg/mL.
